The values below are quoted from earlier work in US12138351B2, “Pharmaceutical composition for oral administration comprising aminopyrimidine derivative or pharmaceutically acceptable salt, hydrate, or solvate thereof” (Janssen Biotech, Inc., priority 2020, dated 2024).

Read-outs that look alike come from different tables or passages of the source.

Data set [1] has as its system T790M single active mutation (EGFRm) and double mutation. Particulars: known irreversible EGFR TKI.
The target in data set [2] is wild-type EGFR (Homo sapiens, UniProt P00533). Particulars: known irreversible EGFR TKI.
The conditions of data set [3]: compared to the compound in the form of free-base.

wild-type EGFR, sequence (P00533 25-1210): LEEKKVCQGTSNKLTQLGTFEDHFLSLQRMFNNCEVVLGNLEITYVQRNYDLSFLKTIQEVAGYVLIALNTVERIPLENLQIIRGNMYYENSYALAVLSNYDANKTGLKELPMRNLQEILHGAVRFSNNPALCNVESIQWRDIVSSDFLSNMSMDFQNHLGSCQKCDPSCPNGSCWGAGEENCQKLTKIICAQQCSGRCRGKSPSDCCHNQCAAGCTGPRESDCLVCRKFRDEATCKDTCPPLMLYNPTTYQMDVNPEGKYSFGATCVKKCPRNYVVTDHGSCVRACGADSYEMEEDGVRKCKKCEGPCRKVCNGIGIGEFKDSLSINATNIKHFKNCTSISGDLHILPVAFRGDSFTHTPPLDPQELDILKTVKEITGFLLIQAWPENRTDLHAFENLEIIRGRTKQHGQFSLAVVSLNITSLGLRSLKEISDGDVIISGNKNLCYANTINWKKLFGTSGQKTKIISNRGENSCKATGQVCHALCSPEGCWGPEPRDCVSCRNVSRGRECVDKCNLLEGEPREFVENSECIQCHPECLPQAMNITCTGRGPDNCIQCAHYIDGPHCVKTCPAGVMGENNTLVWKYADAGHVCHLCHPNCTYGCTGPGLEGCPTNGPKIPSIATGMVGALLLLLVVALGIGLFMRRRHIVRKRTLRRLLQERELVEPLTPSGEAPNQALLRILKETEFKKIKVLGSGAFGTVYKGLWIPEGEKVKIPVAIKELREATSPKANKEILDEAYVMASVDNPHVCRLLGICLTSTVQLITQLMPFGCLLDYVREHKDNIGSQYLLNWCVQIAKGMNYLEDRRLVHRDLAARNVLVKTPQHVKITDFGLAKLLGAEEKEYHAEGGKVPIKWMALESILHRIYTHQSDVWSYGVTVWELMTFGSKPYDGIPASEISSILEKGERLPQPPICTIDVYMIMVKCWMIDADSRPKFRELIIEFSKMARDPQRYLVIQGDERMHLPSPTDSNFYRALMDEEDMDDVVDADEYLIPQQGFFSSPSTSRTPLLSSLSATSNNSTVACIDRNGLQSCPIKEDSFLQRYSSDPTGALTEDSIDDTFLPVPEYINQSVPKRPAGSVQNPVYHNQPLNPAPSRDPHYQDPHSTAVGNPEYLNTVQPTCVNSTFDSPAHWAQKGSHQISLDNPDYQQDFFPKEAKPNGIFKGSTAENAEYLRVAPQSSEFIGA

For the compound `C=CC(=O)Nc1cc(Nc2nccc(-n3cc(CN(C)C)c(-c4ccccc4)n3)n2)c(OC)cc1N1CCOCC1` [Lazertinib, N-(5-(4-(4-((dimethylamino)methyl)-3-phenyl-1H-pyrazol-1-yl)pirimidine-2-ylamino)-4-methoxy-2-morpholinophenyl)acrylamide], the “inhibitory activity on T790M single active mutation (EGFRm) and double mutation” value in data set [1] is recorded as “strong inhibitory activity”. In addition, the “effect on wild-type EGFR” value in data set [2] was “less effect”.

As to “N-(5-(4-(4-((dimethylamino)methyl)-3-phenyl-1H-pyrazol-1-yl)pirimidine-2-ylamino)-4-methoxy-2-morpholinophenyl)acrylamide mesylate [Lazertinib mesylate]”, the stability result in data set [3] is given as “excellent”. In addition, the bioavailability result by setting is: (co-administration with, e.g., an antacid, as well as administration alone) “excellent bioavailability”; (compared to the compound in the form of free-base) “excellent”.
